Earlier results on two molecules are cited in patent US20100284933A1, “Biomarkers of Multiple Sclerosis” (Biogen Idec MA Inc., priority 2006, published 2010).

SMILES strings stand for the structures.

For one series, the target named is PBRs (Homo sapiens, UniProt P30536). As to conditions: background statement.
Another series concerns CBRs. As to conditions: background statement.

PBRs, sequence (P30536 whole entry): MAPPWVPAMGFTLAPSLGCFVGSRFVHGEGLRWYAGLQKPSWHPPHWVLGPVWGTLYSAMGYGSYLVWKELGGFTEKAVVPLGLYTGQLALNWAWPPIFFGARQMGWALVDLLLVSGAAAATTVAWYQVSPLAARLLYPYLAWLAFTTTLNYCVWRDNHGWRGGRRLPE

With `CCC(C)N(C)C(=O)c1cc2ccccc2c(-c2ccccc2Cl)n1` (stereo not shown) [PK 11195], the “affinity for PBRs” value on PBRs is on record as “high affinity”. Further, the “affinity for CBRs” value with CBRs is “negligible affinity”.

On to `CN1C(=O)CN=C(c2ccc(Cl)cc2)c2cc(Cl)ccc21` [Ro 5-4864, 4′-chlorodiazepam], for which the “affinity for PBRs” value on PBRs is “high affinity”. Besides, the “affinity for CBRs” value with CBRs was “negligible affinity”.
